In the NIST ThermoML archive (doi:10.1021/je800831d):
± gives the expanded uncertainty stated by the source.

Key:
[1] = 101 kPa, Liquid
[2] = xn = mol fraction of the nth substance listed; details: 101 kPa, Liquid

C1CCCC1 [cyclopentane]
[1]
Details | mass density [kg/m3]
298.15 K | 733.634 ± 0.57
308.15 K | 726.571 ± 0.58

C1CCCC1 [cyclopentane] + CCCCCCCO
mass density [kg/m3], [2]
Details | 298.15 K | 308.15 K
x1 = 0.0632 | 815.837 ± 0.45 | 808.629 ± 0.46
x1 = 0.1965 | 808.334 ± 0.46 | 800.856 ± 0.47
x1 = 0.3173 | 800.287 ± 0.47 | 792.895 ± 0.48
x1 = 0.4244 | 793.064 ± 0.48 | 785.675 ± 0.49
x1 = 0.4606 | 790.282 ± 0.48 | 782.889 ± 0.49
x1 = 0.5084 | 786.531 ± 0.49 | 779.091 ± 0.5
x1 = 0.6664 | 772.628 ± 0.51 | 764.753 ± 0.52
x1 = 0.7675 | 762.185 ± 0.53 | 754.805 ± 0.54
x1 = 0.8534 | 752.769 ± 0.54 | 745.466 ± 0.55
x1 = 0.9644 | 739.018 ± 0.56 | 731.663 ± 0.57
x1 = 1 | 733.634 ± 0.57 | 726.571 ± 0.58

C1CCCC1 [cyclopentane] + CCCCCO
mass density [kg/m3], [2]
Details | 298.15 K | 308.15 K
x1 = 0.0155 | 810.22 ± 0.45 | 802.763 ± 0.46
x1 = 0.1886 | 799.34 ± 0.47 | 791.417 ± 0.48
x1 = 0.2742 | 793.439 ± 0.48 | 785.673 ± 0.49
x1 = 0.3746 | 786.395 ± 0.49 | 778.336 ± 0.5
x1 = 0.3884 | 785.467 ± 0.49 | 777.389 ± 0.5
x1 = 0.4798 | 779.082 ± 0.5 | 770.553 ± 0.51
x1 = 0.5738 | 771.559 ± 0.51 | 763.458 ± 0.52
x1 = 0.6868 | 762.096 ± 0.53 | 754.298 ± 0.54
x1 = 0.7543 | 756.486 ± 0.53 | 748.638 ± 0.55
x1 = 0.8131 | 751.07 ± 0.54 | 743.306 ± 0.55
x1 = 0.9079 | 742.377 ± 0.56 | 735.151 ± 0.56
x1 = 1 | 733.634 ± 0.57 | 726.571 ± 0.58

C1CCCC1 [cyclopentane] + CCCO
mass density [kg/m3], [2]
Details | 298.15 K | 308.15 K
x1 = 0.0553 | 795.275 ± 0.48 | 786.98 ± 0.49
x1 = 0.1627 | 786.754 ± 0.49 | 778.045 ± 0.5
x1 = 0.2341 | 781.37 ± 0.5 | 772.538 ± 0.51
x1 = 0.3137 | 775.778 ± 0.51 | 766.718 ± 0.52
x1 = 0.4691 | 764.862 ± 0.52 | 755.363 ± 0.54
x1 = 0.5666 | 758.623 ± 0.53 | 748.897 ± 0.55
x1 = 0.6338 | 754.486 ± 0.54 | 744.566 ± 0.55
x1 = 0.7688 | 746.451 ± 0.55 | 737.144 ± 0.56
x1 = 0.8446 | 742.132 ± 0.56 | 733.21 ± 0.57
x1 = 0.9167 | 738.181 ± 0.56 | 729.51 ± 0.57
x1 = 1 | 733.634 ± 0.57 | 726.571 ± 0.58

CCCCCCCO [heptan-1-ol]
[1]
Details | mass density [kg/m3]
298.15 K | 818.813 ± 0.44
308.15 K | 811.73 ± 0.45

CCCCCCCO [heptan-1-ol] + C1CCCC1
[2], x2 = 0
Details | mass density [kg/m3]
298.15 K | 818.813 ± 0.44
308.15 K | 811.73 ± 0.45

CCCCCO [pentan-1-ol]
[1]
Details | mass density [kg/m3]
298.15 K | 811.037 ± 0.45
308.15 K | 803.683 ± 0.46

CCCCCO [pentan-1-ol] + C1CCCC1
[2], x2 = 0
Details | mass density [kg/m3]
298.15 K | 811.037 ± 0.45
308.15 K | 803.683 ± 0.46

CCCO [propan-1-ol]
[1]
Details | mass density [kg/m3]
298.15 K | 799.813 ± 0.47
308.15 K | 791.692 ± 0.48

CCCO [propan-1-ol] + C1CCCC1
[2], x2 = 0
Details | mass density [kg/m3]
298.15 K | 799.813 ± 0.47
308.15 K | 791.692 ± 0.48
